According to paper PMC7241120 (2020):

System: Pu19m2 (DNA, G4) AAGGGAGGGCGGCGGGACA
Test: thermal melting
Details: 50 mM K+; complex ~60 °C, free unimolecular vG4 ~45 °C

- Tm: ~ 15 °C
SMILES: Nc1nc2c(ncn2[C@H]2C[C@H](O)[C@@H](COP(=O)(O)O)O2)c(=O)[nH]1
